The numbers were not newly measured in patent US11304900B1, “Transparent colloidal vitamin supplement blend” (Quicksilver Scientific, Inc., priority 2017, dated 2022), which cites them from elsewhere.

Read-outs that look alike come from different tables or passages of the source.

Experiment in series [1]: not given
This is another data set of the same source.

For series [2] the following is noted: in vivo.

As to `O=C1O[C@H]([C@@H](O)CO)C(O)=C1O` [Vitamin C, ascorbic acid], the “blood serum concentration at which antiviral effect has been demonstrated” value was 10 to 15 mg/dL. In series [1] (IV administration of 50 g/day), the “mean peak plasma level” value is recorded as 80 mg/dL. The “increase of plasma concentration” value in series [1] (daily intake increased from 200 mg/day to 2,500 mg/day) is 25%. Further, the “highest blood serum level observed” value in series [1] (oral administration of pharmacological doses) is 9.3 mg/dL. Besides, in series [1] (oral daily intake 200 mg/day), the plasma concentration is listed as 1.2 mg/dL. Moreover, the plasma concentration in series [1] (oral daily intake 2,500 mg/day) is 1.5 mg/dL.

As to `[Mg+2]` [magnesium], in series [2] (iv), the “change in serum levels” value is “double or triple”. Besides, in series [2] (po), the “change in blood serum magnesium concentration” value is listed as “little or no change”.
